# Patent publication US10398789B2, “Methods, compositions and kits for providing a therapeutic treatment” (priority 2010, dated 2019)
# Columns and labels:
# [1] = tested on: grade IV glioblastoma (GBM); assay: Brain MRI tumor response, glioblastoma subject (Example 1); assay type: in vivo, human; conditions: Example 1, tumor recurrence about two years later; regimen as labelled
# [2] = T4 / FT4 levels in treated cancer patients (summary of empirical findings); assay type: in vivo, human; conditions: Cytomel at 5-40 μg/day
# Description: (§1) These clinical findings correlated with the subject being at a state of moderate hypothyroidism, as indicated by the low levels (below normal) of T4 in the subject's blood and above normal values of TSH; • combined treatment of cancer subjects with an anti-thyroid agent, such as methimazole or PTU, in combination with Cytomel®, slowed tumor growth and/or enhanced sensitivity of the tumor cells to chemotherapy and/or radiation therapy.
# cancer = assay: Growth of cancer in treated cancer patients (summary of empirical findings); assay type: in vivo, human; conditions: Cytomel at 5-40 μg/day
# Description: as §1
# [3] = tested on: malignant fibrous histiocytoma (MFH) of the left pulmonary vein; assay: Tumor size / mass, subject with malignant fibrous histiocytoma (Example 2); conditions: methimazole 40 mg/day with palliative radiation (46Gy), after 2 months
# [4] = Free T4 level, subject with malignant fibrous histiocytoma (Example 2); assay type: in vivo, human; conditions: methimazole 40 mg/day with palliative radiation (46Gy), after 2 months
# Procedure: The subject was maintained on Cytomel® 5 μg, three times a day and methimazole (reduced to 30 mg once a day).
# [5] = Free T4 / TSH monitoring under hypothyroid induction therapy, glioblastoma subject (Example 1); assay type: in vivo, human; conditions: Example 1 GBM subject; PTU 600 mg/day in parallel with temozolomide; after about 12 weeks of treatment
# Procedure: Shortly thereafter carboplatin treatment (7 mg/kg) was initiated along with continuation of the thyroid reduction therapy, using 600 mg/day PTU.
# In order to achieve hypothyroxinemia, in addition to PTU, 5 μg of triiodotionine (T3) was added 3 times a day in order to inhibit TSH and reduce thyroxine level.
smiles,measurement,setting,value
N.N.O=C([O-])C1(C(=O)[O-])CCC1.[Pt+2] [carboplatin],tumor response on MRI at recurrence,[1],no response
"N[C@@H](Cc1cc(I)c(Oc2ccc(O)c(I)c2)c(I)c1)C(=O)O [Cytomel®, Liothyronine sodium]",T4 levels,[2],decrease in T4 levels
same,growth of the cancer,cancer,slows the growth of the cancer
Cn1cc[nH]c1=S [methimazole],tumor size,[3],no change
same,free T4 level,[4],no change
"CCCc1cc(=O)[nH]c(=S)[nH]1 [PTU, propylthiouracil]",T4 levels,[5],slightly reduced
